# Measurements published in ChEMBL document CHEMBL2401659, “Synthesis, anticancer activity and photophysical properties of novel substituted 2-oxo-2H-chromenylpyrazolecarboxylates” (Eur J Med Chem, 2013).
# Test system: DU-145
# Test: Cytotoxicity against human DU145 cells after 48 hrs by MTT assay
# Assay type: functional, cell-based
# Settings: DU-145, 48 h
row,SMILES,IC50 [µM]
1,CCOC(=O)c1c(-c2cc3ccccc3oc2=O)nn(-c2cccc(F)c2)c1C(=O)OCC,32
2,Cc1nn(-c2ccc(Br)cc2)c2c1c(=O)oc1ccccc12,53
3,COc1ccc(-n2nc(C)c3c(=O)oc4ccccc4c32)cc1,175
4,CCOC(=O)c1c(-c2cc3ccccc3oc2=O)nn(-c2cccc(Cl)c2)c1C(=O)OCC,35
5,Cc1cccc(-n2ncc3c(=O)oc4ccc(C)cc4c32)c1,130
6,Cc1cccc(-n2nc(C)c3c(=O)oc4ccccc4c32)c1,150
7,CCOC(=O)c1c(-c2c(Cl)c3ccccc3oc2=O)nn(-c2ccccc2)c1C(=O)OCC,48
8,O=c1oc2ccccc2c2c1cnn2-c1ccccc1,125
9,COc1ccc2oc(=O)c3c(C)nn(-c4ccccc4)c3c2c1,150
10,COc1cccc2c1C(=O)c1c(O)c3c(c(O)c1C2=O)C[C@@](O)(C(=O)CO)C[C@@H]3O[C@H]1C[C@H](N)[C@H](O)[C@H](C)O1 [DOXORUBICIN],6
11,CCOC(=O)c1c(-c2cc3ccc(OC)cc3oc2=O)nn(-c2cccc(C)c2)c1C(=O)OCC,35
12,CCOC(=O)c1c(-c2c(Cl)c3ccccc3oc2=O)nn(-c2cccc(C)c2)c1C(=O)OCC,32
13,Cc1nn(-c2cccc(Cl)c2)c2c1c(=O)oc1ccccc12,139
14,CCOC(=O)c1c(-c2cc3cc4c(cc3oc2=O)OC(C)(C)CC4)nn(-c2cccc(Cl)c2)c1C(=O)OCC,74
15,CCOC(=O)c1c(-c2cc3ccccc3oc2=O)nn(-c2ccc(OC)cc2)c1C(=O)OCC,39
16,CCOC(=O)c1c(-c2c(Cl)c3ccccc3oc2=O)nn(-c2ccc(OC)cc2)c1C(=O)OCC,25
17,CCOC(=O)c1c(-c2cc3cc(OC)ccc3oc2=O)nn(-c2cccc(Cl)c2)c1C(=O)OCC,29
18,CCOC(=O)c1c(-c2cc3ccc(OC)cc3oc2=O)nn(-c2cccc(Cl)c2)c1C(=O)OCC,38
19,CCOC(=O)c1c(-c2cc3ccccc3oc2=O)nn(-c2ccc(C)c(C)c2)c1C(=O)OCC,40
20,COC(=O)c1c(-c2cc3ccccc3oc2=O)nn(-c2ccccc2)c1C(=O)OC,30
21,CCOC(=O)c1c(-c2c(Cl)c3cc(C)ccc3oc2=O)nn(-c2cccc(C)c2)c1C(=O)OCC,103
22,COC(=O)c1c(-c2cc3ccccc3oc2=O)nn(-c2ccc(Br)cc2)c1C(=O)OC,93
23,Cc1cccc(-n2ncc3c(=O)oc4ccccc4c32)c1,100
24,CCOC(=O)c1c(-c2cc3cc4c(cc3oc2=O)OC(C)(C)CC4)nn(-c2cccc(C)c2)c1C(=O)OCC,67
25,CCOC(=O)c1c(-c2cc3ccc(OCC=C(C)C)cc3oc2=O)nn(-c2ccccc2)c1C(=O)OCC,75
26,Cc1nn(-c2ccccc2)c2c1c(=O)oc1ccccc12,120

# Test system: A549
# Test: Cytotoxicity against human A549 cells after 48 hrs by MTT assay
# Assay type: functional, cell-based
# Settings: A549, 48 h
row,SMILES,IC50 [µM]
1,CCOC(=O)c1c(-c2cc3ccccc3oc2=O)nn(-c2cccc(F)c2)c1C(=O)OCC,59
2,Cc1nn(-c2ccc(Br)cc2)c2c1c(=O)oc1ccccc12,130
3,COc1ccc(-n2nc(C)c3c(=O)oc4ccccc4c32)cc1,27
4,CCOC(=O)c1c(-c2cc3ccccc3oc2=O)nn(-c2cccc(Cl)c2)c1C(=O)OCC,28
5,Cc1cccc(-n2ncc3c(=O)oc4ccc(C)cc4c32)c1,145
6,Cc1cccc(-n2nc(C)c3c(=O)oc4ccccc4c32)c1,43
7,CCOC(=O)c1c(-c2c(Cl)c3ccccc3oc2=O)nn(-c2ccccc2)c1C(=O)OCC,34
8,O=c1oc2ccccc2c2c1cnn2-c1ccccc1,175
9,COc1ccc2oc(=O)c3c(C)nn(-c4ccccc4)c3c2c1,150
10,COc1cccc2c1C(=O)c1c(O)c3c(c(O)c1C2=O)C[C@@](O)(C(=O)CO)C[C@@H]3O[C@H]1C[C@H](N)[C@H](O)[C@H](C)O1 [DOXORUBICIN],4
11,CCOC(=O)c1c(-c2cc3ccc(OC)cc3oc2=O)nn(-c2cccc(C)c2)c1C(=O)OCC,171
12,CCOC(=O)c1c(-c2c(Cl)c3ccccc3oc2=O)nn(-c2cccc(C)c2)c1C(=O)OCC,36
13,Cc1nn(-c2cccc(Cl)c2)c2c1c(=O)oc1ccccc12,85
14,CCOC(=O)c1c(-c2cc3cc4c(cc3oc2=O)OC(C)(C)CC4)nn(-c2cccc(Cl)c2)c1C(=O)OCC,146
15,CCOC(=O)c1c(-c2cc3ccccc3oc2=O)nn(-c2ccc(OC)cc2)c1C(=O)OCC,86
16,CCOC(=O)c1c(-c2c(Cl)c3ccccc3oc2=O)nn(-c2ccc(OC)cc2)c1C(=O)OCC,18
17,CCOC(=O)c1c(-c2cc3cc(OC)ccc3oc2=O)nn(-c2cccc(Cl)c2)c1C(=O)OCC,148
18,CCOC(=O)c1c(-c2cc3ccc(OC)cc3oc2=O)nn(-c2cccc(Cl)c2)c1C(=O)OCC,221
19,CCOC(=O)c1c(-c2cc3ccccc3oc2=O)nn(-c2ccc(C)c(C)c2)c1C(=O)OCC,52
20,COC(=O)c1c(-c2cc3ccccc3oc2=O)nn(-c2ccccc2)c1C(=O)OC,28
21,CCOC(=O)c1c(-c2c(Cl)c3cc(C)ccc3oc2=O)nn(-c2cccc(C)c2)c1C(=O)OCC,115
22,COC(=O)c1c(-c2cc3ccccc3oc2=O)nn(-c2ccc(Br)cc2)c1C(=O)OC,165
23,Cc1cccc(-n2ncc3c(=O)oc4ccccc4c32)c1,160
24,CCOC(=O)c1c(-c2cc3cc4c(cc3oc2=O)OC(C)(C)CC4)nn(-c2cccc(C)c2)c1C(=O)OCC,175
25,CCOC(=O)c1c(-c2cc3ccc(OCC=C(C)C)cc3oc2=O)nn(-c2ccccc2)c1C(=O)OCC,136
26,Cc1nn(-c2ccccc2)c2c1c(=O)oc1ccccc12,119

# Test system: HeLa
# Test: Cytotoxicity against human HeLa cells after 48 hrs by MTT assay
# Assay type: functional, cell-based
# Settings: not given
row,SMILES,IC50 [µM]
1,CCOC(=O)c1c(-c2cc3ccccc3oc2=O)nn(-c2cccc(F)c2)c1C(=O)OCC,68
2,Cc1nn(-c2ccc(Br)cc2)c2c1c(=O)oc1ccccc12,130
3,COc1ccc(-n2nc(C)c3c(=O)oc4ccccc4c32)cc1,190
4,CCOC(=O)c1c(-c2cc3ccccc3oc2=O)nn(-c2cccc(Cl)c2)c1C(=O)OCC,22
5,Cc1cccc(-n2ncc3c(=O)oc4ccc(C)cc4c32)c1,150
6,Cc1cccc(-n2nc(C)c3c(=O)oc4ccccc4c32)c1,154
7,CCOC(=O)c1c(-c2c(Cl)c3ccccc3oc2=O)nn(-c2ccccc2)c1C(=O)OCC,100
8,O=c1oc2ccccc2c2c1cnn2-c1ccccc1,165
9,COc1ccc2oc(=O)c3c(C)nn(-c4ccccc4)c3c2c1,115
10,COc1cccc2c1C(=O)c1c(O)c3c(c(O)c1C2=O)C[C@@](O)(C(=O)CO)C[C@@H]3O[C@H]1C[C@H](N)[C@H](O)[C@H](C)O1 [DOXORUBICIN],4.1
11,CCOC(=O)c1c(-c2cc3ccc(OC)cc3oc2=O)nn(-c2cccc(C)c2)c1C(=O)OCC,35
12,CCOC(=O)c1c(-c2c(Cl)c3ccccc3oc2=O)nn(-c2cccc(C)c2)c1C(=O)OCC,30
13,Cc1nn(-c2cccc(Cl)c2)c2c1c(=O)oc1ccccc12,175
14,CCOC(=O)c1c(-c2cc3cc4c(cc3oc2=O)OC(C)(C)CC4)nn(-c2cccc(Cl)c2)c1C(=O)OCC,145
15,CCOC(=O)c1c(-c2cc3ccccc3oc2=O)nn(-c2ccc(OC)cc2)c1C(=O)OCC,90
16,CCOC(=O)c1c(-c2c(Cl)c3ccccc3oc2=O)nn(-c2ccc(OC)cc2)c1C(=O)OCC,27
17,CCOC(=O)c1c(-c2cc3cc(OC)ccc3oc2=O)nn(-c2cccc(Cl)c2)c1C(=O)OCC,160
18,CCOC(=O)c1c(-c2cc3ccc(OC)cc3oc2=O)nn(-c2cccc(Cl)c2)c1C(=O)OCC,205
19,CCOC(=O)c1c(-c2cc3ccccc3oc2=O)nn(-c2ccc(C)c(C)c2)c1C(=O)OCC,50
20,COC(=O)c1c(-c2cc3ccccc3oc2=O)nn(-c2ccccc2)c1C(=O)OC,35
21,CCOC(=O)c1c(-c2c(Cl)c3cc(C)ccc3oc2=O)nn(-c2cccc(C)c2)c1C(=O)OCC,115
22,COC(=O)c1c(-c2cc3ccccc3oc2=O)nn(-c2ccc(Br)cc2)c1C(=O)OC,120
23,Cc1cccc(-n2ncc3c(=O)oc4ccccc4c32)c1,135
24,CCOC(=O)c1c(-c2cc3cc4c(cc3oc2=O)OC(C)(C)CC4)nn(-c2cccc(C)c2)c1C(=O)OCC,105
25,CCOC(=O)c1c(-c2cc3ccc(OCC=C(C)C)cc3oc2=O)nn(-c2ccccc2)c1C(=O)OCC,130
26,Cc1nn(-c2ccccc2)c2c1c(=O)oc1ccccc12,120
